Values quoted from earlier work in US20120003311A9, “METHOD FOR CONTROLLED RELEASE OF AN ACID-UNSTABLE PHYSIOLOGICALLY ACTIVE SUBSTANCE” (EISAI R&D MANAGEMENT CO., LTD., priority 2004, published 2012).

What was measured:
[1] = descending colon vs jejunum

Compound	half-life at pH 7 [hours]	absorption rate in the descending colon as percentage of that of the jejunum [1] [%]
COc1ccnc(C[S+]([O-])c2nc3cc(OC(F)F)ccc3[nH]2)c1OC (centres unmarked) [pantoprazole]	39	–
COCCCOc1ccnc(C[S+]([O-])c2nc3ccccc3[nH]2)c1C (centres unmarked) [rabeprazole sodium]	–	≤ 20
